Data from patent US20150176037A1, “OXIDOREDUCTASE REACTION CONTROL AND USE THEREOF” (Amano Enzyme Inc., priority 2012, published 2015).

Target: T1, formate dehydrogenase (FDH) (Candida boidinii, UniProt O13437)
T1 sequence (O13437 1-364): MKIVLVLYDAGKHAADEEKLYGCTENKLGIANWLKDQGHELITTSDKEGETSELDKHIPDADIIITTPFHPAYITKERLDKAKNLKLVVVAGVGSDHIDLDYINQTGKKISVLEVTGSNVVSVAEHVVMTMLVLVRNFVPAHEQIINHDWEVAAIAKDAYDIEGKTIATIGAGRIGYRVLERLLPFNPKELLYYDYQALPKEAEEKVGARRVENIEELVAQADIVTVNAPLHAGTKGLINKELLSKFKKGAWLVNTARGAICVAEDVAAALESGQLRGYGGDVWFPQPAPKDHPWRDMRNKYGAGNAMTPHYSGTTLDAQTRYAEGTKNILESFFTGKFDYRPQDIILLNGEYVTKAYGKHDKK
Assay: FDH reaction system using methylviologen as artificial coenzyme
Type: biochemical
Settings: 5.0 units FDH
Procedure: 2.2 mM of formic acid, 4.4 mM of methylviologen (MV^2+ was used), and 5.0 units of FDH were incubated, and NADH was detected (lower row, left).
The enzyme catalyzing the reaction converting formic acid into carbon dioxide, “formate dehydrogenase (FDH)” also catalyzes the reaction converting carbon dioxide into formic acid. It should be noted that the speed of the conversion reaction from carbon dioxide into formic acid (reverse reaction) is about one sixth the speed of the conversion reaction from formic acid into carbon dioxide (forward reaction) (FIG. 1). Suppression of the forward reaction is important for the formation of formic acid from carbon dioxide using this enzyme. The original coenzyme of FDH is NAD^+, but methylviologen may be used as an artificial coenzyme (mediator) (Non-Patent Literature 2). However, in the past report, only the interaction between FDH and methylviologen is electrochemically measured, so that no essential finding about the interaction is obtained. Therefore, we studied the characteristics of the […] reaction system using methylviologen as an artificial coenzyme in detail. […] Methylviologen is advantageous also in that it is readily photoreduced using a photosensitive molecule. In contrast, photoreduction of the original coenzyme, NAD^+ is not easy.

C[n+]1ccc(-c2cc[n+](C)cc2)cc1 [methylviologen, 1,1′-dimethyl-4,4′-bipyridinium dichloride]
conversion reaction from carbon dioxide into formic acid (reverse reaction) (2.2 mM CO2, 4.4 mM MV^2+ reduced): only proceeds | conversion reaction from formic acid into carbon dioxide (forward reaction) (2.2 mM formic acid, 4.4 mM MV^2+): does not proceed at all
